This note sets out measurements from patent US7053069B2, “Pharmaceutical compositions and methods of using C-21 modified epothilone derivatives” (Bristol-Myers Squibb Company, priority 2002, dated 2006).

Data set [1] is described as follows: Clinical toxicity in dose escalation study. The data set is classed as in vivo. To be noted: human patients. As for the experimental part: (§1) Compound A was administered to human patients once every three (3) weeks as a 15-minute infusion, using an accelerated followed by modified Fibonacci dose escalation design. Twenty-two (22) patients were treated at does levels of 0.6, 1.2, 2.5, 5, 10, 20, 30 and 40 mg/m^2.

The nature of data set [2]: Degradation of drug during solution preparation and lyophilization. It counts as physicochemical. To be noted: dissolution at about 5° C., pH 6.0, lyophilization at −15° C. 34 hours, drying at 25° C. 24 hours. Here is the method:
[1S-[1R*,3R*(E),7R*,10S*,11R*,12R*,16S*]]-3-[2-[2-(Aminomethyl)-4-thiazolyl]-1-methylethenyl]-7,11-dihydroxy-8,8,10,12,16-pentamethyl-4,17-dioxabicyclo[14.1.0]heptadecane-5,9-dione (compound of formula Ic) (8.7 g) was dissolved in 1280 mL of an aqueous solution of citric acid (10.1 grams) and dextran 40 (80 grams) which had been pre-cooled to about 5° C. Once the drug powder had become completely dissolved, the solution pH was adjusted to 6.0 and Water for Injection (178 mL) was added.
The solution formed above was promptly lyophilized in a Virtis Genesis(TM) lyophilizer at −15° C. with exclusion of light over a period of 34 hours. The resultant lyophile was then further dried at 25° C. under high vacuum for 24 hours. […] The lyophile was packaged under clean conditions into 15 mL vials, each containing 10 mg of drug plus a 10% excess to allow for transfer and dispensing (vial/needle/syringe, VNS) losses.

A short description of data set [3]: Clinical pharmacokinetics, 15-minute infusion once every three weeks. It counts as in vivo, human. As for the experimental part: as §1
Data set [4] in a line: Aqueous solubility / formulation without surfactants. The data set is classed as physicochemical. As for the experimental part:
The epothilones of formula Ic may be formulated without the use of surfactants to a concentration of about at least 20 mg/mL with pH adjustment. If formulations containing a surfactant are desired, the lyophilized epothilone analogs represented by formula I, Ia, Ib and Ic are reconstituted with a mixture of equal parts by volume of Dehydrated Alcohol, USP and a nonionic surfactant, preferably a polyoxyethylated castor oil surfactant (available from GAF Corporation, Mount Olive, N.J., under the trademark, Cremophor EL). Alternately, an oral suspension can be prepared by pH adjustment and the use of a stabilizer, surfactant, and/or viscosity enhancing agent, and may be administered alone or with water or with a pharmaceutically acceptable acid neutralizing buffer.

Data set [5] is described as follows: Stability of aqueous solution, time for 5% drug loss (t95). The data set is classed as physicochemical. To be noted: 37° C. The source says:
Administering one or more epothilones of formula I, Ia, Ib or Ic, or a pharmaceutically acceptable salt, solvate, clathrate, hydrate, or prodrug thereof, in combination with a pharmaceutically acceptable acid neutralizing buffer provides increased bioavailability of the one or more epothilones of formula I, Ia, Ib or Ic. Without being limited by theory, it is believed that the increased bioavailability is due, at least in significant part, to the buffer decreasing the rate of decomposition of the epothilones of formula I, Ia, Ib or Ic, or a pharmaceutically acceptable salt, solvate, clathrate, hydrate, or prodrug thereof, in the acidic environment of the stomach. Certain epothilones, including the epothilone of formula Ic, are unstable in acidic aqueous environments and decompose, presumably by an acid catalyzed hydrolytic opening of the epoxide ring. For example, the time for 5% drug loss (t95) at 37° C. for an aqueous solution of Compound A (epothilone of formula Ic) is approximately 14 h at pH 7, but <0.2 hours at pH 2.5. Thus, when epothilones of formula I, Ia, Ib or Ic, or a pharmaceutically acceptable salt, solvate, clathrate, hydrate, or prodrug thereof, are orally administered they decompose in the stomach of the patient such that they are either minimally absorbed or not absorbed by the gastrointestinal tract.

In data set [6] the test system is taxane-sensitive and taxane-resistant tumor models. The data set can be described thus: Anticancer activity in tumor models.
The mark [7] stands for this setting: human, 30 mg/m^2, cycle 1, mean, n=7.
[8] abbreviates: plasma, intravenous, 30 mg/m2, human, 30 mg/m^2, cycle 1, mean, n=7.

SMILES strings stand for the structures.

By AUC is commonly meant the area under the concentration-time curve, a measure of exposure. Higher therefore signals high exposure. As a reminder, the Cmax is the maximum level reached in the sampled fluid or tissue. A word on the half-life: it is how long it takes for the measured level to halve. Consider `C/C(=C\c1csc(CN)n1)[C@@H]1C[C@@H]2O[C@]2(C)CCC[C@H](C)[C@H](O)[C@@H](C)C(=O)C(C)(C)[C@@H](O)CC(=O)O1` [Compound A, [1S-[1R*,3R*(E),7R*,10S*,11R*,12R*,16S*]]-3-[2-[2-(aminomethyl)-4-thiazolyl]-1-methylethenyl]-7,11-dihydroxy-8,8,10,12,16-pentamethyl-4,17-dioxabicyclo[14.1.0]heptadecane-5,9-dione], for which the related toxicities entry in data set [1] was “diarrhea, nausea, vomitting, anorexia, fatigue, anemia, alopecia, neuropathy, myalgia and neutropenia”. The “dose-limiting toxicity (DLT)” value in data set [1] (0.6 to 40 mg/m^2) is “No dose-limiting toxicity (DLT) was observed”. In addition, the “degradation of the drug” value in data set [2] is given as “No detectable degradation”. Besides, the “time plasma concentrations near or above the preclinically determined effective concentration (MEC)” value in data set [3] (four of the seven patients in the 30 mg/m2 cohort) was “about 8 hours”. In data set [3] (human patients, 0.6 to 40 mg/m^2, preliminary pharmacokinetics), the “increases in AUC and CMAX” value is “dose-related”. In data set [3] (setting [7]), this compound registered a C1t of 282 mL/min/m^2 and a Vss of 494 L/m^2. In data set [3] (setting [8]), this compound had an AUC of 2100 ng·h/mL, a peak concentration (Cmax) of 3430 ng/mL and a half-life of 33 h. For the same compound, the aqueous solubility result in data set [4] is reported as “water soluble”. Also, the “concentration formulated without surfactants” value in data set [4] (with pH adjustment) is “at least 20 mg/mL”. Besides, the “time for 5% drug loss (t95)” value in data set [5] (pH 2.5) is under 0.2 h. For the same compound, the “time for 5% drug loss (t95)” value in data set [5] (pH 7) is “approximately 14 h”. The anticancer activity entry in data set [6] was “demonstrated anticancer activity”.
